{
  "source": "paper PMC10084949",
  "about": "“Peptide Variant Detection by a Living Yeast Biosensor via an Epitope-Selective Protease” (Biodesign Research, 2023)",
  "key": {"[1]": {"target": "T1, SpSte2 with SpSxa2 or other fungal proteases (Schizosaccharomyces pombe, UniProt Q00619)", "T1 construct": "we cloned codon-optimized open reading frames (ORFs) of all 5 proteases and GPCRs; expressed in transfected cells; host or cells: S. cerevisiae strains from yTC370 (yTC530, yTC529, yTC531-534, yTC525, yTC526); two genome-integrated pTDH3-SpSTE2 copies", "T1 sequence (Q00619 1-348)": "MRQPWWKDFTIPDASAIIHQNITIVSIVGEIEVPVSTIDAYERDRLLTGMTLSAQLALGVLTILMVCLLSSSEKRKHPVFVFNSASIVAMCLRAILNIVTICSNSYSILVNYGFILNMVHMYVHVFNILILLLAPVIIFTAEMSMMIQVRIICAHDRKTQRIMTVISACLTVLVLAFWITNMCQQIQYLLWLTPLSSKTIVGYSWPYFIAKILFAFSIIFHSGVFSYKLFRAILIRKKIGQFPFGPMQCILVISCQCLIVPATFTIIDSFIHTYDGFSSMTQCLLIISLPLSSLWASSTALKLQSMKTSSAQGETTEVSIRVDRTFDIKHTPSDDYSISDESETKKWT", "experiment": "Dose-response of SpSte2 fluorescent strains with cognate or noncognate proteases", "format": "cell-based", "protocol": "(§1) Glycerol stocked strains were streaked out on YPD plate and incubated for 2 days. Three colonies were picked, replated on YPD plate, incubated for 1 day, and then stored at 4 °C. For activation assays, a small scoop of yeast patch from the 3 colonies was resuspended in ~4 ml of YPD medium and incubated overnight. Overnight cells were seeded at an optical density at 600 nm (OD600) of 0.15 (as measured in 96-well plate at 200-μl volume) in SC/Glc medium after washing twice with sterile Mili-Q H2O. GPCR activity and response to increasing concentrations of synthetic peptide ligands were measured in strains carrying appropriate genome-integrated components in 96-well microtiter plates in 200-μl total volume and cultured at 30 °C and 800 rpm, unless otherwise stated. All measurements were performed in biological triplicate. Culture turbidity (OD600) and fluorescence for ymTurquoise2 (excitation, 439 nm; emission, 475 nm; gain, 75) were measured after 0 and 8 h using an Infinite 200 Pro plate reader (Tecan). Dose–response curve was measured at 11 different concentrations of the appropriate synthetic peptide ligand with a constant dilution factor and a no-peptide, H2O control. The absorbance at 600 nm normalized fluorescence values and log10-transformed peptide concentrations were fit to a 4-parameter nonlinear regression model using Prism (GraphPad) to extract GPCR-specific values for basal activation, maximal activation, EC50, and the Hill coefficient.\n(§2) To validate the effect of peptide proteases on their complementary and noncomplementary peptides (Table S8), from the parent strain yTC370, we engineered 30 strains (Table S1).\n(§3) Next, to validate whether we can control the extent of peptide cleavage by their cognate proteases by modulating the concentration of expressed protease, we constitutively expressed proteases under promoters of different expression levels. For the purpose of determining the protease’s specificity in previous section (S1), all proteases were expressed under pCCW12, which is one of the strongest characterized promoters in yeast. Here, we introduced 2 additional promoters to convey medium and low expression levels of the proteases. We selected pRPL18B for medium expression and pRAD27 for low expression level. We cloned these promoters upstream from protease ORFs in Golden Gate cassette plasmids, assembled the protease cassettes with their cognate GPCRs and fluorescent readout, and integrated into parent yTC370 strain (see Materials and Methods and Table S1). Then, we compared dose–response curves of strains responding to their cognate peptides without the protease or with protease at 3 different expression levels (low, medium, and high) (S2)."}, "[2]": {"system": "SjSte2 with SjSxa2 or other fungal proteases", "sequence (as listed by the source)": "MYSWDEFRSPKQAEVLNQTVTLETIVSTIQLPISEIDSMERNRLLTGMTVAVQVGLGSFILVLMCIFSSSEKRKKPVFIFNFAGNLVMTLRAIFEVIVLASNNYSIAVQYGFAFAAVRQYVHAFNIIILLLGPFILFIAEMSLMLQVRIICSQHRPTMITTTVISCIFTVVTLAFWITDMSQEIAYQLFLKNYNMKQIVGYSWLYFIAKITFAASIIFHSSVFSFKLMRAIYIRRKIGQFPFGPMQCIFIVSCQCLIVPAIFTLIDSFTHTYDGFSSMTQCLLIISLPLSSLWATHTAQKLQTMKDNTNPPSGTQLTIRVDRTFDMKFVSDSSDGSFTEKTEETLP", "experiment": "Dose-response of SjSte2 fluorescent strains with cognate or noncognate proteases", "format": "cell-based, Schizosaccharomyces japonicus", "protocol": "as §1, §2, §3"}, "[3]": {"system": "SoSte2 with SoSxa2 or other fungal proteases", "sequence (as listed by the source)": "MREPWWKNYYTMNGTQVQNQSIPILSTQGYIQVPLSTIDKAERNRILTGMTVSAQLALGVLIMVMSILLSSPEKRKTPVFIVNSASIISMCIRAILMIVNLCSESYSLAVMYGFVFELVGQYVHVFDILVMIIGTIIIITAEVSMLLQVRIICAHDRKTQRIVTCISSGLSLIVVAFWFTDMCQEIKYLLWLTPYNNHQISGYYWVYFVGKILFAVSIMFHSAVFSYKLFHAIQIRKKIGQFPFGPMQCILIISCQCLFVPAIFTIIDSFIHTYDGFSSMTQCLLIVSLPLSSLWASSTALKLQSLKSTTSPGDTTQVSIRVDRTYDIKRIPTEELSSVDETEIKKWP", "experiment": "Dose-response of SoSte2 fluorescent strains with cognate or noncognate proteases", "format": "cell-based, Schizosaccharomyces octosporus", "protocol": "as §1, with “coefficient. […]” for “coefficient.”\nNext, to validate whether we can control the extent of peptide cleavage by their cognate proteases by modulating the concentration of expressed protease, we constitutively expressed proteases under promoters of different expression levels. […] We cloned these promoters upstream from protease ORFs in Golden Gate cassette plasmids, assembled the protease cassettes with their cognate GPCRs and fluorescent readout, and integrated into parent yTC370 strain (see Materials and Methods and Table S1). […]"}, "[4]": {"settings": "noncomplementary proteases, pCCW12, fluorescent readout"}},
  "note": "Peptide text beside a SMILES is read from it.",
  "data": [
    {"compound": "CC(C)C[C@H](NC(=O)[C@H](CC(N)=O)NC(=O)[C@@H]1CCCN1C(=O)[C@H](CCCNC(=N)N)NC(=O)[C@H](CC(=O)O)NC(=O)[C@@H]1CCCN1C(=O)[C@H](CC(N)=O)NC(=O)[C@@H](NC(=O)[C@H](Cc1ccccc1)NC(=O)[C@@H](NC(=O)[C@H](CC(N)=O)NC(=O)[C@H](Cc1c[nH]c2ccccc12)NC(=O)[C@H](CO)NC(=O)[C@H](CCC(N)=O)NC(=O)[C@H](Cc1ccc(O)cc1)NC(=O)[C@H](C)NC(=O)[C@H](CCCNC(=N)N)NC(=O)[C@H](CC(C)C)NC(=O)[C@H](Cc1ccccc1)NC(=O)[C@H](CC(=O)O)NC(=O)[C@H](C)NC(=O)[C@H](Cc1ccc(O)cc1)NC(=O)[C@@H](N)[C@@H](C)O)[C@@H](C)O)C(C)C)C(=O)O", "note": "[SpPep] (H-TYADFLRAYQSWNTFVNPDRPNL-OH; N-terminus and C-terminus assumed)", "values": [
      {"measurement": "effect of cognate protease SpSxa2 on response", "setting": "[1]; SpSxa2 under pCCW12 (high expression), fluorescent readout, 8 h", "result": "practically completely attenuated the response"},
      {"measurement": "EC50 shift with low SpSxa2 expression", "setting": "[1]; SpSxa2 under pRAD27 (low expression), fluorescent readout, 8 h", "result": "did not show notable apparent EC50 shift"},
      {"measurement": "EC50 shift with medium SpSxa2 expression", "setting": "[1]; SpSxa2 under pRPL18B (medium expression), fluorescent readout, 8 h", "result": "~2 orders of magnitude"},
      {"measurement": "cleavage by ScBar1 and CaBar1", "setting": "[1]; [4]", "result": "did not cleave"},
      {"measurement": "apparent EC50 with complementary protease SpSxa2", "setting": "[1]; out of the measurable peptide concentration range, pCCW12, fluorescent readout", "result": "> 100", "unit": "µM"},
      {"measurement": "apparent EC50 shift with noncomplementary proteases SjSxa2 and SoSxa2", "setting": "[1]; pCCW12, fluorescent readout", "result": "between half and one order of magnitude"}
    ]},
    {"compound": "VSDRVKQMLSHWWNFRNPDTANL [SjPep, S. japonicus pheromone peptide, synthetic]", "values": [
      {"measurement": "apparent EC50 shift with complementary protease SjSxa2", "setting": "[2]; SjSxa2 under pCCW12 (high expression), fluorescent readout, 8 h", "result": "over one order of magnitude"},
      {"measurement": "EC50 shift with low SjSxa2 expression", "setting": "[2]; SjSxa2 under pRAD27 (low expression)", "result": "did not affect EC50"},
      {"measurement": "apparent EC50 shift with medium and high SjSxa2 expression", "setting": "[2]; SjSxa2 under pRPL18B and pCCW12, out of measurable range (>100 μM)", "result": "more than 2 orders of magnitude"},
      {"measurement": "EC50", "setting": "[2]; out of the measurable peptide concentration range, pCCW12, fluorescent readout, read-out: apparent EC50 with complementary protease SjSxa2", "result": "> 100", "unit": "µM"}
    ]},
    {"compound": "TYEDFLRVYKNWWSFQNPDRPDL [SoPep, S. octosporus pheromone peptide, synthetic]", "values": [
      {"measurement": "EC50 shift with low and medium SoSxa2 expression", "setting": "[3]; SoSxa2 under pRAD27 or pRPL18B, compared to strain with no protease", "result": "did not notably shift the apparent EC50"},
      {"measurement": "cleavage by ScBar1 and CaBar1", "setting": "[3]; [4]", "result": "did not cleave"},
      {"measurement": "apparent EC50 shift with noncomplementary proteases SjSxa2 and SpSxa2", "setting": "[3]; pCCW12, fluorescent readout", "result": "between half and one order of magnitude"}
    ]}
  ]
}
